Laboratory results reported in US20060069132A1, “Azolecarboxamide herbicides” (priority 2004, published 2006).

Experiments:
barnyardgrass [1] = experiment: Test B pre-/postemergence herbicide test; format: in vivo, Echinochloa crus-galli; conditions: for Barnyardgrass plant response rating: scale 0 (no effect) to 100 (complete control)
Outline: (§1)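 Pre: seeds sown, then sprayed. Post: 1–4-leaf plants (2–18 cm) sprayed at the same time. Paddy: flooded, treated at 2-leaf stage. Formulation: non-phytotoxic solvent with surfactant. Greenhouse 13–15 days; visual 0–100 score relative to controls.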

cocklebur = experiment: Test B pre-/postemergence herbicide test; format: in vivo, Xanthium strumarium
Outline: as §1

corn = experiment: Test B pre-/postemergence herbicide test; format: in vivo, Zea mays
Outline: (§2)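 Evaluation is visual, comparing treated with control plants on a scale where 0 means no effect and 100 means full control. Treatments were preemergence, or postemergence on seedlings 2–18 cm tall, and held 13–15 days in the greenhouse.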

giant foxtail = experiment: Test B pre-/postemergence herbicide test; format: in vivo, Setaria faberi
Outline: as §2

lambsquarters = experiment: Test B pre-/postemergence herbicide test; format: in vivo, Chenopodium album
Outline: as §2

morningglory = experiment: Test B pre-/postemergence herbicide test; format: in vivo, Ipomoea coccinea
Outline: as §1

pigweed = experiment: Test B pre-/postemergence herbicide test; format: in vivo, Amaranthus retroflexus
Outline: as §2

velvetleaf = experiment: Test B pre-/postemergence herbicide test; format: in vivo, Abutilon theophrasti
Outline: as §2

blackgrass = experiment: Test B postemergence herbicide test; format: in vivo, Alopecurus myosuroides
Outline: (§3)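 Read-out: visual comparison with controls, scored 0 to 100, where 100 means complete control and 0 no effect. Formulated chemicals were applied postemergence to plants 2–18 cm tall (1- to 4-leaf), or to flooded-paddy plants at the 2-leaf stage, then held 13 to 15 days under glass.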

wheat = experiment: Test B postemergence herbicide test; format: in vivo, Triticum aestivum; design: key to Wheat plant response rating: 0 = no effect, 100 = complete control
Outline: as §3

wild oat = experiment: Test B postemergence herbicide test; format: in vivo, Avena fatua
Outline: as §3

rice = experiment: Test B flooded paddy test; format: in vivo, Oryza sativa; conditions: 1000 g ai/ha, scale 0 to 100 (0 no effect, 100 complete control)
Outline: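 Each value is a visual 0–100 response rating taken against controls 13 to 15 days after treatment in the greenhouse. Plants received formulated chemical postemergence at the 1- to 4-leaf stage or, in flooded paddy, at the 2-leaf stage.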

[2] = test system: small flower umbrella sedge; experiment: Test B flooded paddy test; format: in vivo, Cyperus difformis; conditions: 1000 g ai/ha, scale 0 to 100 (0 no effect, 100 complete control)
Outline: as §3

ducksalad = experiment: Test B flooded paddy test; format: in vivo, Heteranthera limosa; conditions: 1000 g ai/ha, scale 0 to 100 (0 no effect, 100 complete control)
Outline: as §3

barnyardgrass [3] = experiment: Test B flooded paddy test; format: in vivo, Echinochloa crus-galli; conditions: 1000 g ai/ha, scale 0 to 100 (0 no effect, 100 complete control)
Outline: as §3

[4] = 500 g ai/ha, visual rating 0-100, 0 no effect, 100 complete control, preemergence
[5] = postemergence, 125 g ai/ha, visual rating
[6] = postemergence, 500 g ai/ha, visual rating
[7] = preemergence, 125 g ai/ha, 0 to 100 scale, 0 is no effect, 100 is complete control
[8] = postemergence, 125 g ai/ha, visual rating, scale 0 (no effect) to 100 (complete control)
[9] = postemergence, 500 g ai/ha, visual rating, scale 0 (no effect) to 100 (complete control)
[10] = 125 g ai/ha, 0 is no effect, 100 is complete control, preemergence
[11] = Postemergence, 500 g ai/ha, scale 0 (no effect) to 100 (complete control)
[12] = postemergence, 125 g ai/ha, scale 0 to 100
[13] = 125 g ai/ha, 0 = no effect, 100 = complete control, preemergence

CC(=O)c1cccc(NC(=O)c2cc(C(C)(C)C)nn2CCF)c1 [Compound 128]
30: Barnyardgrass plant response rating (barnyardgrass [1]; [6]) | Plant response rating, Morningglory (morningglory; [4])
10: Blackgrass plant response rating (blackgrass; [8]) | Blackgrass plant response rating (blackgrass; [9]) | Oat, Wild plant response rating (wild oat; [8]) | Oat, Wild plant response rating (wild oat; [9])
80: Plant response rating, Barnyardgrass (barnyardgrass [1]; [7]) | Plant response rating, Pigweed (pigweed; [4]) | Plant response rating, Velvetleaf (velvetleaf; [4])
0: Plant response rating, Corn (corn; [7]) | Lambsquarters plant response rating (lambsquarters; [8]) | Plant response rating, Lambsquarters (lambsquarters; [7]) | Wheat plant response rating (wheat; [8])
50: Plant response rating, Pigweed (pigweed; [7]) | Velvetleaf plant response rating (velvetleaf; [8])
100: Cocklebur plant response rating (cocklebur; [9])
90: Plant response rating, Barnyardgrass (barnyardgrass [1]; [4]) | Cocklebur plant response rating (cocklebur; [8]) | Sedge, Umbrella plant response rating ([2]; visual rating, 13 to 15 days) | Ducksalad plant response rating (ducksalad; visual rating, 13 to 15 days)
70: Plant response rating, Lambsquarters (lambsquarters; [4]) | Plant response rating, Velvetleaf (velvetleaf; [7]) | Barnyardgrass plant response rating (barnyardgrass [3]; visual rating, 13 to 15 days)
20: Barnyardgrass plant response rating (barnyardgrass [1]; [5]) | Plant response rating, Cocklebur (cocklebur; [4]) | Plant response rating, Cocklebur (cocklebur; [7]) | Plant response rating, Corn (corn; [4]) | Foxtail, Giant plant response rating (giant foxtail; [8]) | Foxtail, Giant plant response rating (giant foxtail; [9]) | Plant response rating, Morningglory (morningglory; [7]) | Pigweed plant response rating (pigweed; [8]) | Wheat plant response rating (wheat; [9])
60: Plant response rating, Foxtail, Giant (giant foxtail; [4]) | Lambsquarters plant response rating (lambsquarters; [9]) | Pigweed plant response rating (pigweed; [9]) | Velvetleaf plant response rating (velvetleaf; [9]) | Rice plant response rating (rice; visual rating, 13 to 15 days)
40: Plant response rating, Foxtail, Giant (giant foxtail; [7])

Cc1nn(C(C)(C)C)nc1C(=O)Nc1cccc(C(=S)N(C)C)c1 [Compound 419]
30: Plant response rating (0 to 100 scale), Cocklebur (cocklebur; [10]) | Corn plant response rating (corn; [11]) | Foxtail, Giant plant response rating (giant foxtail; [11]) | Foxtail, Giant plant response rating (giant foxtail; [12]) | Blackgrass plant response rating (blackgrass; [11])
10: Blackgrass plant response rating (blackgrass; [12]) | Wheat plant response rating (wheat; [12])
50: Barnyardgrass plant response rating (barnyardgrass [1]; Postemergence, 500 g ai/ha) | Plant response rating (0 to 100 scale), Morningglory (morningglory; [10]) | Velvetleaf plant response rating (velvetleaf; [11])
80: Morningglory plant response rating (morningglory; [12]) | Pigweed plant response rating (pigweed; [11]) | Rice plant response rating (rice) | Sedge, Umbrella plant response rating [2]
90: Plant response rating (0 to 100 scale), Foxtail, Giant (giant foxtail; [10]) | Lambsquarters plant response rating (lambsquarters; [11]) | Morningglory plant response rating (morningglory; [11]) | Barnyardgrass plant response rating (barnyardgrass [3])
20: Barnyardgrass plant response rating (barnyardgrass [1]; Postemergence, 125 g ai/ha) | Cocklebur plant response rating (cocklebur; [12]) | Corn plant response rating (corn; [12]) | Velvetleaf plant response rating (velvetleaf; [12]) | Wheat plant response rating (wheat; [11]) | Oat, Wild plant response rating (wild oat; [11])
0: Oat, Wild plant response rating (wild oat; [12])
60: Pigweed plant response rating (pigweed; [12])
40: Cocklebur plant response rating (cocklebur; [11])
70: Plant response rating (0 to 100 scale), Corn (corn; [10]) | Lambsquarters plant response rating (lambsquarters; [12]) | Plant response rating (0 to 100 scale), Velvetleaf (velvetleaf; [10]) | Ducksalad plant response rating (ducksalad)
100: Plant response rating (0 to 100 scale), Barnyardgrass (barnyardgrass [1]; [10]) | Plant response rating (0 to 100 scale), Lambsquarters (lambsquarters; [10]) | Plant response rating (0 to 100 scale), Pigweed (pigweed; [10]) | Wheat plant response rating (wheat; 500 g ai/ha, scale 0 to 100, 0 no effect, 100 complete control, preemergence)

CCNC(=O)c1ccc(F)c(NC(=O)c2cn(C(C)(C)C)nc2CC)c1 [Compound 193]
20: Cocklebur plant response rating (cocklebur; [8]) | Corn plant response rating (corn; [9]) | Foxtail, Giant plant response rating (giant foxtail; [9]) | Pigweed plant response rating (pigweed; [8]) | Blackgrass plant response rating (blackgrass; [9])
50: Velvetleaf plant response rating (velvetleaf; [8])
80: Rice plant response rating (rice; visual rating, 13 to 15 days) | Sedge, Umbrella plant response rating ([2]; visual rating, 13 to 15 days) | Barnyardgrass plant response rating (barnyardgrass [3]; visual rating, 13 to 15 days)
100: Plant response rating, Barnyardgrass (barnyardgrass [1]; [4]) | Plant response rating, Corn (corn; [4]) | Foxtail, Giant plant response rating (0 to 100 scale) (giant foxtail; [13]) | Plant response rating, Foxtail, Giant (giant foxtail; [4]) | Lambsquarters plant response rating (0 to 100 scale) (lambsquarters; [13]) | Plant response rating, Lambsquarters (lambsquarters; [4]) | Plant response rating, Morningglory (morningglory; [4]) | Pigweed plant response rating (0 to 100 scale) (pigweed; [13]) | Plant response rating, Pigweed (pigweed; [4]) | Plant response rating, Velvetleaf (velvetleaf; [4])
90: Barnyardgrass plant response rating (0 to 100 scale) (barnyardgrass [1]; [13]) | Lambsquarters plant response rating (lambsquarters; [8]) | Lambsquarters plant response rating (lambsquarters; [9]) | Ducksalad plant response rating (ducksalad; visual rating, 13 to 15 days)
30: Morningglory plant response rating (morningglory; [8])
70: Plant response rating, Cocklebur (cocklebur; [4]) | Cocklebur plant response rating (cocklebur; [9]) | Corn plant response rating (0 to 100 scale) (corn; [13]) | Morningglory plant response rating (morningglory; [9]) | Velvetleaf plant response rating (0 to 100 scale) (velvetleaf; [13]) | Velvetleaf plant response rating (velvetleaf; [9])
0: Barnyardgrass plant response rating (barnyardgrass [1]; [5]) | Blackgrass plant response rating (blackgrass; [8]) | Oat, Wild plant response rating (wild oat; [8]) | Oat, Wild plant response rating (wild oat; [9])
10: Barnyardgrass plant response rating (barnyardgrass [1]; [6]) | Cocklebur plant response rating (0 to 100 scale) (cocklebur; [13]) | Corn plant response rating (corn; [8]) | Foxtail, Giant plant response rating (giant foxtail; [8]) | Wheat plant response rating (wheat; [8]) | Wheat plant response rating (wheat; [9])
60: Pigweed plant response rating (pigweed; [9])
40: Morningglory plant response rating (0 to 100 scale) (morningglory; [13])
